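Five compound concentrations were applied to cells in 96-well plates for 48 hours; endpoints were derived by simple linear interpolation of the resulting dose-response curve. The concentration for 50% growth inhibition is given as GI50.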 Activity calls are given as the source filed them. Rule as the data show it: active = GI50 up to about 1.1 µM and inactive = higher.
Assays:
Assay in all cases: DTP human tumour cell line panel, 48 h
786-0 = tested on: 786-0
A498 = tested on: A498
A549 = tested on: A549
ACHN = tested on: ACHN
BT-549 = tested on: BT-549
CAKI-1 = tested on: CAKI-1
CCRF-CEM = tested on: CCRF-CEM
COLO 205 = tested on: COLO 205
DU-145 = tested on: DU-145
EKVX = tested on: EKVX
HCC 2998 = tested on: HCC 2998
HCT-116 = tested on: HCT-116
HCT-15 = tested on: HCT-15
HL-60 = tested on: HL-60
HOP-62 = tested on: HOP-62
HOP-92 = tested on: HOP-92
HT-29 = tested on: HT-29
Hs-578T = tested on: Hs-578T
IGROV-1 = tested on: IGROV-1
K562 = tested on: K562
KM12 = tested on: KM12
LOX IMVI = tested on: LOX IMVI
MCF7 = tested on: MCF7
MDA-MB-231 = tested on: MDA-MB-231
MDA-MB-435 = tested on: MDA-MB-435
MDA-N = tested on: MDA-N
MOLT-4 = tested on: MOLT-4
Malme-3M = tested on: Malme-3M
NCI-H226 = tested on: NCI-H226
NCI-H23 = tested on: NCI-H23
NCI-H460 = tested on: NCI-H460
NCI-H522 = tested on: NCI-H522
NCI/ADR-RES = tested on: NCI/ADR-RES
OVCAR-3 = tested on: OVCAR-3
OVCAR-4 = tested on: OVCAR-4
OVCAR-5 = tested on: OVCAR-5
OVCAR-8 = tested on: OVCAR-8
PC-3 = tested on: PC-3
RPMI-8226 = tested on: RPMI-8226
RXF 393 = tested on: RXF 393
SF-268 = tested on: SF-268
SF-295 = tested on: SF-295
SF-539 = tested on: SF-539
SK-MEL-28 = tested on: SK-MEL-28
SK-MEL-2 = tested on: SK-MEL-2
SK-MEL-5 = tested on: SK-MEL-5
SK-OV-3 = tested on: SK-OV-3
SN12C = tested on: SN12C
SNB-19 = tested on: SNB-19
SR = tested on: SR
SW-620 = tested on: SW-620
T47D = tested on: T47D
TK-10 = tested on: TK-10
U-251 = tested on: U-251
UACC-257 = tested on: UACC-257
UACC-62 = tested on: UACC-62
UO-31 = tested on: UO-31
M14 = tested on: M14
SNB-75 = tested on: SNB-75

Structure (SMILES): O=C1C=CC(=O)N1n1c(Cc2ccccc2)n[nH]c1=O
- GI50 (786-0): > 100 µM (inactive)
- GI50 (A498): > 100 µM (inactive)
- GI50 (A549): > 100 µM (inactive)
- GI50 (ACHN): > 100 µM (inactive)
- GI50 (BT-549): > 100 µM (inactive)
- GI50 (CAKI-1): > 100 µM (inactive)
- GI50 (CCRF-CEM): > 100 µM (inactive)
- GI50 (COLO 205): > 100 µM (inactive)
- GI50 (DU-145): > 100 µM (inactive)
- GI50 (EKVX): > 100 µM (inactive)
- GI50 (HCC 2998): > 100 µM (inactive)
- GI50 (HCT-116): > 100 µM (inactive)
- GI50 (HCT-15): > 100 µM
- GI50 (HL-60): > 100 µM (inactive)
- GI50 (HOP-62): > 100 µM (inactive)
- GI50 (HOP-92): > 100 µM (inactive)
- GI50 (HT-29): > 100 µM (inactive)
- GI50 (Hs-578T): > 100 µM (inactive)
- GI50 (IGROV-1): > 100 µM (inactive)
- GI50 (K562): > 100 µM (inactive)
- GI50 (KM12): > 100 µM (inactive)
- GI50 (LOX IMVI): > 100 µM (inactive)
- GI50 (MCF7): > 100 µM (inactive)
- GI50 (MDA-MB-231): > 100 µM (inactive)
- GI50 (MDA-MB-435): > 100 µM (inactive)
- GI50 (MDA-N): > 100 µM (inactive)
- GI50 (MOLT-4): > 100 µM (inactive)
- GI50 (Malme-3M): > 100 µM (inactive)
- GI50 (NCI-H226): > 100 µM (inactive)
- GI50 (NCI-H23): > 100 µM (inactive)
- GI50 (NCI-H460): > 100 µM (inactive)
- GI50 (NCI-H522): > 100 µM (inactive)
- GI50 (NCI/ADR-RES): > 100 µM (inactive)
- GI50 (OVCAR-3): > 100 µM (inactive)
- GI50 (OVCAR-4): > 100 µM (inactive)
- GI50 (OVCAR-5): > 100 µM (inactive)
- GI50 (OVCAR-8): > 100 µM (inactive)
- GI50 (PC-3): > 100 µM (inactive)
- GI50 (RPMI-8226): > 100 µM (inactive)
- GI50 (RXF 393): > 100 µM (inactive)
- GI50 (SF-268): > 100 µM (inactive)
- GI50 (SF-295): > 100 µM (inactive)
- GI50 (SF-539): > 100 µM (inactive)
- GI50 (SK-MEL-28): > 100 µM (inactive)
- GI50 (SK-MEL-2): > 100 µM (inactive)
- GI50 (SK-MEL-5): > 100 µM (inactive)
- GI50 (SK-OV-3): > 100 µM (inactive)
- GI50 (SN12C): > 100 µM (inactive)
- GI50 (SNB-19): > 100 µM (inactive)
- GI50 (SR): > 100 µM (inactive)
- GI50 (SW-620): > 100 µM (inactive)
- GI50 (T47D): > 100 µM (inactive)
- GI50 (TK-10): > 100 µM (inactive)
- GI50 (U-251): > 100 µM (inactive)
- GI50 (UACC-257): > 100 µM (inactive)
- GI50 (UACC-62): > 100 µM (inactive)
- GI50 (UO-31): > 100 µM (inactive)

Structure (SMILES): O=C(O)CCC(NC(=O)c1ccc(Nc2cnc3ccc(C(F)(F)F)cc3n2)cc1)C(=O)O (centres undefined)
- GI50 (786-0): > 100 µM (inactive)
- GI50 (A498): > 100 µM (inactive)
- GI50 (A549): > 100 µM (inactive)
- GI50 (ACHN): > 100 µM (inactive)
- GI50 (BT-549): > 100 µM (inactive)
- GI50 (CAKI-1): > 100 µM (inactive)
- GI50 (CCRF-CEM): > 100 µM (inactive)
- GI50 (COLO 205): > 100 µM (inactive)
- GI50 (DU-145): > 100 µM (inactive)
- GI50 (EKVX): > 100 µM (inactive)
- GI50 (HCC 2998): > 100 µM (inactive)
- GI50 (HCT-116): > 100 µM (inactive)
- GI50 (HCT-15): > 100 µM
- GI50 (HL-60): > 100 µM (inactive)
- GI50 (HOP-62): > 100 µM (inactive)
- GI50 (HOP-92): > 100 µM (inactive)
- GI50 (HT-29): > 100 µM (inactive)
- GI50 (Hs-578T): 45.9 µM (inactive)
- GI50 (IGROV-1): > 100 µM (inactive)
- GI50 (K562): > 100 µM (inactive)
- GI50 (KM12): > 100 µM (inactive)
- GI50 (LOX IMVI): > 100 µM (inactive)
- GI50 (M14): > 100 µM (inactive)
- GI50 (MCF7): > 100 µM (inactive)
- GI50 (MDA-MB-231): > 100 µM (inactive)
- GI50 (MDA-MB-435): > 100 µM (inactive)
- GI50 (MDA-N): > 100 µM (inactive)
- GI50 (MOLT-4): > 100 µM (inactive)
- GI50 (Malme-3M): > 100 µM (inactive)
- GI50 (NCI-H226): > 100 µM (inactive)
- GI50 (NCI-H23): > 100 µM (inactive)
- GI50 (NCI-H460): > 100 µM (inactive)
- GI50 (NCI/ADR-RES): > 100 µM (inactive)
- GI50 (OVCAR-3): > 100 µM (inactive)
- GI50 (OVCAR-4): > 100 µM (inactive)
- GI50 (OVCAR-5): > 100 µM (inactive)
- GI50 (OVCAR-8): > 100 µM (inactive)
- GI50 (PC-3): > 100 µM (inactive)
- GI50 (RPMI-8226): > 100 µM (inactive)
- GI50 (RXF 393): > 100 µM (inactive)
- GI50 (SF-268): > 100 µM (inactive)
- GI50 (SF-295): > 100 µM (inactive)
- GI50 (SF-539): > 100 µM (inactive)
- GI50 (SK-MEL-28): > 100 µM (inactive)
- GI50 (SK-MEL-2): > 100 µM (inactive)
- GI50 (SK-MEL-5): > 100 µM (inactive)
- GI50 (SK-OV-3): > 100 µM (inactive)
- GI50 (SN12C): > 100 µM (inactive)
- GI50 (SNB-19): > 100 µM (inactive)
- GI50 (SNB-75): > 100 µM (inactive)
- GI50 (SR): > 100 µM (inactive)
- GI50 (SW-620): > 100 µM (inactive)
- GI50 (T47D): > 100 µM (inactive)
- GI50 (TK-10): > 100 µM (inactive)
- GI50 (U-251): > 100 µM (inactive)
- GI50 (UACC-257): > 100 µM (inactive)
- GI50 (UACC-62): > 100 µM (inactive)
- GI50 (UO-31): > 100 µM (inactive)

Structure (SMILES): COc1cc(C(=O)/C=C/c2ccc(OCCSCCCCCCCCCCSCCOc3ccc(/C=C/C(=O)c4cc(OC)c(OC)c(OC)c4)cc3)cc2)cc(OC)c1OC
- GI50 (786-0): > 100 µM (inactive)
- GI50 (A498): > 100 µM (inactive)
- GI50 (A549): > 100 µM (inactive)
- GI50 (ACHN): > 100 µM (inactive)
- GI50 (BT-549): > 100 µM (inactive)
- GI50 (CAKI-1): > 100 µM (inactive)
- GI50 (CCRF-CEM): > 100 µM (inactive)
- GI50 (COLO 205): > 100 µM (inactive)
- GI50 (DU-145): > 100 µM (inactive)
- GI50 (EKVX): > 100 µM (inactive)
- GI50 (HCC 2998): > 100 µM (inactive)
- GI50 (HCT-116): > 100 µM (inactive)
- GI50 (HCT-15): > 100 µM
- GI50 (HL-60): > 100 µM (inactive)
- GI50 (HOP-62): > 100 µM (inactive)
- GI50 (HOP-92): > 100 µM (inactive)
- GI50 (HT-29): > 100 µM (inactive)
- GI50 (Hs-578T): > 100 µM (inactive)
- GI50 (IGROV-1): > 100 µM (inactive)
- GI50 (K562): > 100 µM (inactive)
- GI50 (KM12): > 100 µM (inactive)
- GI50 (LOX IMVI): > 100 µM (inactive)
- GI50 (M14): > 100 µM (inactive)
- GI50 (MCF7): > 100 µM (inactive)
- GI50 (MDA-MB-231): > 100 µM (inactive)
- GI50 (MDA-MB-435): > 100 µM (inactive)
- GI50 (MDA-N): > 100 µM (inactive)
- GI50 (MOLT-4): > 100 µM (inactive)
- GI50 (Malme-3M): > 100 µM (inactive)
- GI50 (NCI-H23): > 100 µM (inactive)
- GI50 (NCI-H522): > 100 µM (inactive)
- GI50 (NCI/ADR-RES): > 100 µM (inactive)
- GI50 (OVCAR-3): > 100 µM (inactive)
- GI50 (OVCAR-5): > 100 µM (inactive)
- GI50 (OVCAR-8): > 100 µM (inactive)
- GI50 (PC-3): > 100 µM (inactive)
- GI50 (RPMI-8226): > 100 µM (inactive)
- GI50 (RXF 393): > 100 µM (inactive)
- GI50 (SF-268): > 100 µM (inactive)
- GI50 (SF-295): > 100 µM (inactive)
- GI50 (SF-539): > 100 µM (inactive)
- GI50 (SK-MEL-28): > 100 µM (inactive)
- GI50 (SK-MEL-2): > 100 µM (inactive)
- GI50 (SK-MEL-5): > 100 µM (inactive)
- GI50 (SN12C): > 100 µM (inactive)
- GI50 (SNB-19): > 100 µM (inactive)
- GI50 (SNB-75): > 100 µM (inactive)
- GI50 (SR): > 100 µM (inactive)
- GI50 (SW-620): > 100 µM (inactive)
- GI50 (T47D): > 100 µM (inactive)
- GI50 (TK-10): > 100 µM (inactive)
- GI50 (U-251): > 100 µM (inactive)
- GI50 (UACC-62): > 100 µM (inactive)
- GI50 (UO-31): > 100 µM (inactive)

Reference: ChEMBL document CHEMBL1201862, “PubChem BioAssay data set” (2004)
